The inhibition is the change of the read-out against control, counted positive when it falls.

Some targets named below: NEK9 (Homo sapiens, UniProt Q8TD19); Kit (Homo sapiens, UniProt P10721); MAPKAPK3 (Homo sapiens, UniProt Q16644); Mink1 (Homo sapiens, UniProt Q8N4C8); PLK3 (Homo sapiens, UniProt Q9H4B4); PrKX (Homo sapiens, UniProt P51817); EGFR(T790M,L858R) (Homo sapiens, UniProt P00533, L858R/T790M); GRK2 (Homo sapiens, UniProt P25098); CLK2 (Homo sapiens, UniProt P49760); EphB1 (Homo sapiens, UniProt P54762); Fes (Homo sapiens, UniProt P07332).

What all share (assay): biochemical
Common to all, as to parameters: Invitrogen kinase panel: Z'Lyte activity (ATP at Km) or LanthaScreen competitive ATP-site binding, percent inhibition

The target of another test is T1, PKC_alpha (Homo sapiens, UniProt P17252).
T1 construct: gene PRKCA

For a further test, the target named is T2, Rsk1 (Homo sapiens, UniProt Q15418).
T2 construct: gene RPS6KA1

For another test, the target named is T3, MEKK2 (Homo sapiens, UniProt Q9Y2U5).
T3 construct: gene MAP3K2

A further test has as its target T4, MLK2 (Homo sapiens, UniProt Q02779).
T4 construct: gene MAP3K10

The target of a further test is T5, CamKII_alpha (Homo sapiens, UniProt Q9UQM7).
T5 construct: gene CAMK2A

A further test deals with T6, CamKIV (Homo sapiens, UniProt Q16566).
T6 construct: gene CAMK4

In a further test the target is T7, PKC_delta (Homo sapiens, UniProt Q05655).
T7 construct: gene PRKCD

For the next test, the target named is T8, ASK1 (Homo sapiens, UniProt Q99683).
T8 construct: gene MAP3K5

A further test concerns the target T9, CaMKI (Homo sapiens, UniProt Q14012).
T9 construct: gene CAMK1

Another test concerns the target T10, TSSK1 (Homo sapiens, UniProt Q9BXA7).
T10 construct: gene TSSK1B

For another test, the target named is T11, YSK1 (Homo sapiens, UniProt O00506).
T11 construct: gene STK25

The next test has as its target T12, CaMKII_beta (Homo sapiens, UniProt Q13554).
T12 construct: gene CAMK2B

In the next test the target is T13, CK1_delta (Homo sapiens, UniProt P48730).
T13 construct: gene CSNK1D
T13 sequence (P48730 whole entry): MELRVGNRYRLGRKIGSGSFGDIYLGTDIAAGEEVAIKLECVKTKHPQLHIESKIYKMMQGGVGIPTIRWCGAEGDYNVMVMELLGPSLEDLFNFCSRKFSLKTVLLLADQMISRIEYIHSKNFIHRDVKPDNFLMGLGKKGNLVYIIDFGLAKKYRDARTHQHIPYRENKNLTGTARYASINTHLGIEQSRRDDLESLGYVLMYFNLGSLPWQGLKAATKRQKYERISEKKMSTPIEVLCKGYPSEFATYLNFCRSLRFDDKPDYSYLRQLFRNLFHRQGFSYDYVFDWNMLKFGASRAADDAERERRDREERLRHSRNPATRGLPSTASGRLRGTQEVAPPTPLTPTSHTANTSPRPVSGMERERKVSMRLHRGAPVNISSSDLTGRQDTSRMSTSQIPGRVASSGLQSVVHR

T10 sequence (Q9BXA7 whole entry): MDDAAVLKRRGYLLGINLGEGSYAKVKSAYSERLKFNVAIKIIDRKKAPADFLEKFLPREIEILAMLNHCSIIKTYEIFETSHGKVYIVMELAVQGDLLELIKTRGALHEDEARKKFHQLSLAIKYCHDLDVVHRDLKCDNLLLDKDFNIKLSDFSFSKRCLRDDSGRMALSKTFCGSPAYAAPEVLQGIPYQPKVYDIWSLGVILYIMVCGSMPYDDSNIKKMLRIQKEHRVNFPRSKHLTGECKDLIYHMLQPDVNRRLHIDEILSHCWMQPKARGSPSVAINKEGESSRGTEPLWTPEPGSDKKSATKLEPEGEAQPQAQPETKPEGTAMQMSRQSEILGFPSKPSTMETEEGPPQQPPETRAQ
T6 sequence (Q16566 whole entry): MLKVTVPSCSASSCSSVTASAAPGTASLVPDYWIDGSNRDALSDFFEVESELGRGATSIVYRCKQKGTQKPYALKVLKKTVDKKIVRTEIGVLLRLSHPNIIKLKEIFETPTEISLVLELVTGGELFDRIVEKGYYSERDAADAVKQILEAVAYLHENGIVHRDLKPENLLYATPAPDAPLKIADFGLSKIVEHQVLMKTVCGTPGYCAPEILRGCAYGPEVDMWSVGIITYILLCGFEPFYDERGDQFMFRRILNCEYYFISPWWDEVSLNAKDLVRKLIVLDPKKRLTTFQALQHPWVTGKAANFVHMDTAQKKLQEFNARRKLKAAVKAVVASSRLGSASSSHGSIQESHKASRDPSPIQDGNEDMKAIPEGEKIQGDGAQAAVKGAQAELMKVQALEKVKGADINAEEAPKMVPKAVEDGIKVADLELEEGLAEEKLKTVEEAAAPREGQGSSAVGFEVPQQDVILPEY
T4 sequence (Q02779 whole entry): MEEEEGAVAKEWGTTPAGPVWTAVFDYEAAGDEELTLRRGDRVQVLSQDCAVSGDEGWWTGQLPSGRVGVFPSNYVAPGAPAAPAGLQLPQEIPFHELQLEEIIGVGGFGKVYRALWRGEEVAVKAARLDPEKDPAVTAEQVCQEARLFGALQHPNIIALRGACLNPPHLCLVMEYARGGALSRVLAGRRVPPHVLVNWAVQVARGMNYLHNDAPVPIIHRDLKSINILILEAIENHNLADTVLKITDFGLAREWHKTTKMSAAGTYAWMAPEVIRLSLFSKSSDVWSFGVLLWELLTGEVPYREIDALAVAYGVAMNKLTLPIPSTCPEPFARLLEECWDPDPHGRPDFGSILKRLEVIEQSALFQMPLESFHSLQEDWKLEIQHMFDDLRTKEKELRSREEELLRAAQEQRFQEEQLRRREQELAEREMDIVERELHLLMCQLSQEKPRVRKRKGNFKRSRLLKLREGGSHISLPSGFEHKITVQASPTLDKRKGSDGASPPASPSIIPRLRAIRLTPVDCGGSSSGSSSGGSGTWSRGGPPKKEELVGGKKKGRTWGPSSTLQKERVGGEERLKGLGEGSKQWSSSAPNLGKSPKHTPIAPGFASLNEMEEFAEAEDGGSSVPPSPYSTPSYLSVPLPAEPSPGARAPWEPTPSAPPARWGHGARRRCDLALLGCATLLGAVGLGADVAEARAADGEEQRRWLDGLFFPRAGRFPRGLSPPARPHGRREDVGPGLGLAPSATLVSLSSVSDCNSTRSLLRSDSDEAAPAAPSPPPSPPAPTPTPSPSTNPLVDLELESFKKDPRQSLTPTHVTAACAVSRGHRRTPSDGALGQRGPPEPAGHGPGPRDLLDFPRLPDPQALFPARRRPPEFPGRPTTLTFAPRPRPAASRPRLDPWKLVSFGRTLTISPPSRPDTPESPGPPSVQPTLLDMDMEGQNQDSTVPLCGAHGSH
T5 sequence (Q9UQM7 whole entry): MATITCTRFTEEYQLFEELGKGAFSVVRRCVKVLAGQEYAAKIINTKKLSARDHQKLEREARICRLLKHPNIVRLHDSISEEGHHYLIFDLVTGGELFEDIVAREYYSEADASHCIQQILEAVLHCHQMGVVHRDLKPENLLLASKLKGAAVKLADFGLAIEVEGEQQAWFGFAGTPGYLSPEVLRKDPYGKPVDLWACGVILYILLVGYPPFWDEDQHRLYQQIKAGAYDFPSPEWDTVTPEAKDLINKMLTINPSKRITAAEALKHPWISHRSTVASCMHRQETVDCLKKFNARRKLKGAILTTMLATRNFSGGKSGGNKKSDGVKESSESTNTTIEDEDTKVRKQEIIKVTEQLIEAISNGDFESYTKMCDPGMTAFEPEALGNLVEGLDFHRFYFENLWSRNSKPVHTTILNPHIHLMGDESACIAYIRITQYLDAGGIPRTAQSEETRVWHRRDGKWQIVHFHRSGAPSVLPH
CLK2, sequence (P49760 whole entry): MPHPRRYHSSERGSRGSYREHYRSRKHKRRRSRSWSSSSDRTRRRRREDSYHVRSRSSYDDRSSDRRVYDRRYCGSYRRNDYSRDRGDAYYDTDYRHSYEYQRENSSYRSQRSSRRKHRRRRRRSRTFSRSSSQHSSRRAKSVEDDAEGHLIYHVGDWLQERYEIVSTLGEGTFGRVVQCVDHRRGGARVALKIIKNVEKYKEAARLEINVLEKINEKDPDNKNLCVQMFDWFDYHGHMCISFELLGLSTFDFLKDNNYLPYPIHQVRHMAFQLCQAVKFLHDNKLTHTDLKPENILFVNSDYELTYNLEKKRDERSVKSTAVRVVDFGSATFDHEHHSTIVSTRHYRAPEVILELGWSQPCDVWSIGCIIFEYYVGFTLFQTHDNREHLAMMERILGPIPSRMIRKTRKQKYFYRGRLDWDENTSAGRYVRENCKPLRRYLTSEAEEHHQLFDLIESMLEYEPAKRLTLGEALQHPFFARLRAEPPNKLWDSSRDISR
Fes, sequence (P07332 whole entry): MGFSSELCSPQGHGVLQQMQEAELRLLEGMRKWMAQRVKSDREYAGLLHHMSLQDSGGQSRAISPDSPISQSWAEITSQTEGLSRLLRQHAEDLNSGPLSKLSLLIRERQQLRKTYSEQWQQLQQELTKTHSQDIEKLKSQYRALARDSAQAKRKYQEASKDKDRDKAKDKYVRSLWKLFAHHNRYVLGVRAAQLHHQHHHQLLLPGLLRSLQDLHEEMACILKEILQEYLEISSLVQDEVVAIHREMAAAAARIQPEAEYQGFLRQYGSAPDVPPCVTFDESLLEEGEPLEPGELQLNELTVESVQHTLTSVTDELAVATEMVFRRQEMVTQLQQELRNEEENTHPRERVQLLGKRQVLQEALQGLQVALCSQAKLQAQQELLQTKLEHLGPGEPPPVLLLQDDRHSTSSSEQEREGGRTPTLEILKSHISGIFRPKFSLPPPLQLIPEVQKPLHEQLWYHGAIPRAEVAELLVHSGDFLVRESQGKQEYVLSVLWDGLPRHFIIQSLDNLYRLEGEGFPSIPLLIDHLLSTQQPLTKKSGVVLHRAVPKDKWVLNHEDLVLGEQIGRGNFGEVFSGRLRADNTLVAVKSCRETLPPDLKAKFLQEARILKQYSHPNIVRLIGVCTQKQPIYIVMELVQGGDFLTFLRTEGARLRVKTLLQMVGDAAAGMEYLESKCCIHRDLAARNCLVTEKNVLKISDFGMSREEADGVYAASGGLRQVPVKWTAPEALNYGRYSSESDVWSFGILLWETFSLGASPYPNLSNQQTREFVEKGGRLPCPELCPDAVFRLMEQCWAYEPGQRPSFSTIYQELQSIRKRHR
T2 sequence (Q15418 whole entry): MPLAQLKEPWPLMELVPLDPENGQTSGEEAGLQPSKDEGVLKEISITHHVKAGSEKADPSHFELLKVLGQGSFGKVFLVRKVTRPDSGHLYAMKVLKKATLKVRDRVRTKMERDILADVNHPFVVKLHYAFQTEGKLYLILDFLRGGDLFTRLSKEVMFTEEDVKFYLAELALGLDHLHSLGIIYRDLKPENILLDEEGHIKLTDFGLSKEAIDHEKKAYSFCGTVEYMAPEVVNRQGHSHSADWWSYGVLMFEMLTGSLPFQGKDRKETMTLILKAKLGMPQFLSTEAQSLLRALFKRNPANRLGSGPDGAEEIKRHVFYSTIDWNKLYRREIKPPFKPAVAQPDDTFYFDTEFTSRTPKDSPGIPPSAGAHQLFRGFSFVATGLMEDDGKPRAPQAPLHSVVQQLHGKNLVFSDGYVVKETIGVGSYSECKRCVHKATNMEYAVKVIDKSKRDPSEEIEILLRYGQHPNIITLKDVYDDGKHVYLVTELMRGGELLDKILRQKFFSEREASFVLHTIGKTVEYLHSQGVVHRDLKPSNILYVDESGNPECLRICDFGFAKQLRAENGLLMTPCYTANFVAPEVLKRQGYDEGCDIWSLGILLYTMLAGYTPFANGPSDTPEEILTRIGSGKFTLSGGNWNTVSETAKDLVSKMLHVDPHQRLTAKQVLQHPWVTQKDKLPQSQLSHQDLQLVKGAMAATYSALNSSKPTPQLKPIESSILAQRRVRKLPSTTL

With `CC#CC(=O)Nc1cccc2c(Oc3ncccc3-c3ccnc(N[C@H]4CCCNC4)n3)c(C)ccc12` [G-7658], the inhibition at 1 µM is -0.5% at NEK9; 4% at PKC_alpha; -0.5% on Kit; 1.5% at Rsk1; 1% at MEKK2; 8% at MAPKAPK3. Further, the inhibition at 1 µM is 4% on Mink1; -2.5% at PLK3; -1.5% at PrKX; 4% at MLK2; -16% on CamKII_alpha; 4% on EGFR(T790M,L858R). Moreover, the inhibition at 1 µM on CamKIV was -2.5%; on PKC_delta, 15%; at ASK1, 2%; at GRK2, 1%; on CLK2, 23%; on CaMKI, -2.5%. In addition, the inhibition at 1 µM was 7.5% on TSSK1; -11.5% on EphB1; 3.5% at Fes; -3% on YSK1; 0.5% at CaMKII_beta; 5.5% on CK1_delta.
In the case of `CCOC(=O)Nc1cccc2c(Oc3ncccc3-c3ccnc(N[C@H]4CCCNC4)n3)c(C)ccc12` [G-1749], the inhibition at 1 µM is -3% on NEK9; 1.5% on PKC_alpha; 0% at Kit; 3% at Rsk1; -0.5% at MEKK2; 12.5% at MAPKAPK3. Besides, the inhibition at 1 µM was 25% on Mink1; -5% at PLK3; -0.5% at PrKX; 0.5% at MLK2; -17.5% on CamKII_alpha; 2.5% on EGFR(T790M,L858R). The inhibition at 1 µM is -1.5% at CamKIV; 12% on PKC_delta; -4% on ASK1; 2% on GRK2; 18.5% on CLK2; -10% on CaMKI. The inhibition at 1 µM was 8.5% on TSSK1; -17% on EphB1; 5% at Fes; 2.5% on YSK1; -2% on CaMKII_beta; 3% at CK1_delta.

(Values after paper PMC7736581, “Activation of the IRE1 RNase through remodeling of the kinase front pocket by ATP-competitive ligands” (Nature Communications, 2020).)
